Experiments:
bulrush = assay: Herbicidal test for paddy field; assay type: in vivo, Scrips juncoides; conditions: 500 g/ha, dropwise addition to paddy water at 1.5 leaf stage of barnyard grass; glass house 25° C., 3 weeks; rank 0-5 vs non-treated district
Experimental: (§1) Wagner pots, each having an area of 1/5000 are, were packed with Ube soil (alluvial soil) and planted with seeds or tubers of young rice plant, barnyard grass, bulrush, Cyperus serotinus Rottb., arrowhead and monochoria. Then, the pots were filled with water to a depth of 3 cm.
(§2) Each wettable powder of the desired Compounds (I) shown in Tables 1 to 21, 24, 25, 28 and 29 prepared in accordance with Example 2 was diluted with water containing a surfactant (0.05%) and subjected to dropwise addition treatment by using pipet so that an effective concentration of the compound (I) in each herbicide became 500 g/ha at 1.5 leaf stage of barnyard grass.
(§3) These plants were controlled in a glass house at an average temperature of 25° C. for 3 weeks, and then herbicidal effects thereof were investigated.
(§4) The herbicidal effects are evaluated according to the following 6 ranks as compared with non-treated district. (0: normal development, 1: Less damaged, 2: Slightly damaged, 3: Moderately damaged, 4: Severely damaged, 5: All killed). Incidentally, “-” in the column means not investigated.

annual bluegrass [1] = assay: Foliar spread test for upland field; assay type: in vivo, Poa annua; set-up: key: 0 = normal development, 5 = all killed (6 ranks vs. untreated); conditions: foliar spray, 500 ppm, 3 weeks, glass house 25° C.
In short: (§5)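 Plants grown about 2 weeks at 25 °C in volcanic ash soil were sprayed with wettable powder diluted to 500 ppm in water with 0.5% surfactant. After 3 weeks at 25 °C, damage was scored 0 (normal) to 5 (all killed) against untreated plants.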

Cyperus serotinus Rottb. = assay: Herbicidal test for paddy field; assay type: in vivo; conditions: 500 g/ha, dropwise addition to paddy water at 1.5 leaf stage of barnyard grass; glass house 25° C., 3 weeks; rank 0-5 vs non-treated district
Experimental: as §1, §2, §3, §4

livid amaranth [2] = assay: Foliar spread test for upland field; assay type: in vivo, Amaranthus lividus; set-up: key: 0 = normal development, 5 = all killed (6 ranks vs. untreated); conditions: foliar spray, 500 ppm, 3 weeks, glass house 25° C.
In short: as §5

morning glory [3] = assay: Soil treatment test for upland field; assay type: in vivo, Ipomoea spps.; set-up: key: 0 = normal development, 5 = all killed; conditions: 500 g/ha, 3 weeks, glass house 25° C.
In short: (§6)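 Scored on a 0–5 scale (0 normal growth, 5 all killed) relative to untreated plots after 3 weeks in a glasshouse averaging 25° C. Compound applied as surfactant-containing (0.05%) aqueous dilution of wettable powder onto the surface of sown Ube alluvial soil at 500 g/ha.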

morning glory [4] = assay: Foliar spread test for upland field; assay type: in vivo, Ipomoea spps.; set-up: key: 0 = normal development, 5 = all killed (6 ranks vs. untreated); conditions: foliar spray, 500 ppm, 3 weeks, glass house 25° C.
In short: as §5

barnyard grass [5] = assay: Soil treatment test for upland field; assay type: in vivo, Eschinochloa crusgalli; set-up: key: 0 = normal development, 5 = all killed; conditions: 500 g/ha, 3 weeks, glass house 25° C.
In short: as §6

blackgrass [6] = assay: Foliar spread test for upland field; assay type: in vivo, Alopecurus aegualis; set-up: key: 0 = normal development, 5 = all killed (6 ranks vs. untreated); conditions: foliar spray, 500 ppm, 3 weeks, glass house 25° C.
In short: as §5

wheat [7] = assay: Foliar spread test for upland field; assay type: in vivo; set-up: key: 0 = normal development, 5 = all killed (6 ranks vs. untreated); conditions: foliar spray, 500 ppm, 3 weeks, glass house 25° C.
In short: as §5

sugar beat [8] = assay: Foliar spread test for upland field; assay type: in vivo; set-up: key: 0 = normal development, 5 = all killed (6 ranks vs. untreated); conditions: foliar spray, 500 ppm, 3 weeks, glass house 25° C.
In short: as §5

soybean [9] = assay: Foliar spread test for upland field; assay type: in vivo; set-up: key: 0 = normal development, 5 = all killed (6 ranks vs. untreated); conditions: foliar spray, 500 ppm, 3 weeks, glass house 25° C.
In short: as §5

corn [10] = assay: Foliar spread test for upland field; assay type: in vivo; set-up: key: 0 = normal development, 5 = all killed (6 ranks vs. untreated); conditions: foliar spray, 500 ppm, 3 weeks, glass house 25° C.
In short: as §5

solgum [11] = assay: Foliar spread test for upland field; assay type: in vivo; set-up: key: 0 = normal development, 5 = all killed (6 ranks vs. untreated); conditions: foliar spray, 500 ppm, 3 weeks, glass house 25° C.
In short: as §5

cotton = assay: Foliar spread test for upland field; assay type: in vivo; set-up: key: 0 = normal development, 5 = all killed (6 ranks vs. untreated); conditions: foliar spray, 500 ppm, 3 weeks, glass house 25° C.
In short: as §5

velvetleaf [12] = assay: Foliar spread test for upland field; assay type: in vivo, Abutilon theophrasti; set-up: key: 0 = normal development, 5 = all killed (6 ranks vs. untreated); conditions: foliar spray, 500 ppm, 3 weeks, glass house 25° C.
In short: as §5

wheat [13] = assay: Soil treatment test for upland field; assay type: in vivo; set-up: key: 0 = normal development, 5 = all killed; conditions: 500 g/ha, 3 weeks, glass house 25° C.
In short: as §6

corn [14] = assay: Soil treatment test for upland field; assay type: in vivo; set-up: key: 0 = normal development, 5 = all killed; conditions: 500 g/ha, 3 weeks, glass house 25° C.
In short: as §6

solgum [15] = assay: Soil treatment test for upland field; assay type: in vivo; set-up: key: 0 = normal development, 5 = all killed; conditions: 500 g/ha, 3 weeks, glass house 25° C.
In short: as §6

barnyardgrjass = assay: Foliar spread test for upland field; assay type: in vivo, Eschinochloa crusgalli; set-up: key: 0 = normal development, 5 = all killed (6 ranks vs. untreated); conditions: foliar spray, 500 ppm, 3 weeks, glass house 25° C.
In short: as §5

blackgrass [16] = assay: Soil treatment test for upland field; assay type: in vivo, Alopecurus aegualis; set-up: key: 0 = normal development, 5 = all killed; conditions: 500 g/ha, 3 weeks, glass house 25° C.
In short: as §6

green foxtail [17] = assay: Foliar spread test for upland field; assay type: in vivo, Setaria viridis; set-up: key: 0 = normal development, 5 = all killed (6 ranks vs. untreated); conditions: foliar spray, 500 ppm, 3 weeks, glass house 25° C.
In short: as §5

Large crabgrass [18] = assay: Soil treatment test for upland field; assay type: in vivo, Digitaria adscendens; set-up: key: 0 = normal development, 5 = all killed; conditions: 500 g/ha, 3 weeks, glass house 25° C.
In short: as §6

green foxtail [19] = assay: Soil treatment test for upland field; assay type: in vivo, Setaria viridis; set-up: key: 0 = normal development, 5 = all killed; conditions: 500 g/ha, 3 weeks, glass house 25° C.
In short: as §6

livid amaranth [20] = assay: Soil treatment test for upland field; assay type: in vivo, Amaranthus lividus; set-up: key: 0 = normal development, 5 = all killed; conditions: 500 g/ha, 3 weeks, glass house 25° C.
In short: as §6

annual bluegrass [21] = assay: Soil treatment test for upland field; assay type: in vivo, Poa annua; set-up: key: 0 = normal development, 5 = all killed; conditions: 500 g/ha, 3 weeks, glass house 25° C.
In short: as §6

Large crabgrass [22] = assay: Foliar spread test for upland field; assay type: in vivo, Digitaria adscendens; set-up: key: 0 = normal development, 5 = all killed (6 ranks vs. untreated); conditions: foliar spray, 500 ppm, 3 weeks, glass house 25° C.
In short: as §5

common lambsquarters [23] = assay: Soil treatment test for upland field; assay type: in vivo, Chenopodium album; set-up: key: 0 = normal development, 5 = all killed; conditions: 500 g/ha, 3 weeks, glass house 25° C.
In short: as §6

common lambsquarters [24] = assay: Foliar spread test for upland field; assay type: in vivo, Chenopodium album; set-up: key: 0 = normal development, 5 = all killed (6 ranks vs. untreated); conditions: foliar spray, 500 ppm, 3 weeks, glass house 25° C.
In short: as §5

barnyard grass [25] = assay: Herbicidal test for paddy field; assay type: in vivo, Eschinochloa crusgalli; conditions: 500 g/ha, dropwise addition to paddy water at 1.5 leaf stage of barnyard grass; glass house 25° C., 3 weeks; rank 0-5 vs non-treated district
Experimental: as §1, §2, §3, §4

sugar beat [26] = assay: Soil treatment test for upland field; assay type: in vivo; set-up: key: 0 = normal development, 5 = all killed; conditions: 500 g/ha, 3 weeks, glass house 25° C.
In short: as §6

soybean [27] = assay: Soil treatment test for upland field; assay type: in vivo; set-up: key: 0 = normal development, 5 = all killed; conditions: 500 g/ha, 3 weeks, glass house 25° C.
In short: as §6

velvetleaf [28] = assay: Soil treatment test for upland field; assay type: in vivo, Abutilon theophrasti; set-up: key: 0 = normal development, 5 = all killed; conditions: 500 g/ha, 3 weeks, glass house 25° C.
In short: as §6

SMILES | Effects Bulrush (bulrush) | Effects Annual bluegrass (annual bluegrass [1]) | Effects Cyperus serotinus Rottb. (Cyperus serotinus Rottb.) | Effects Livid amaranth (livid amaranth [2]) | Effects Morning glory (morning glory [3]) | Effects Morning glory (morning glory [4]) | Effects Barnyardgrass (barnyard grass [5]) | Effects Blackgrass (blackgrass [6]) | Effects Wheat (wheat [7]) | Effects Sugar beat (sugar beat [8]) | Effects Soybean (soybean [9]) | Effects Corn (corn [10]) | Effects Solgum (solgum [11]) | Effects Sotton (cotton) | Effects Velvetleaf (velvetleaf [12]) | Effects Wheat (wheat [13]) | Effects Corn (corn [14]) | Effects Solgum (solgum [15]) | Effects Barnyardgrass (barnyardgrjass) | Effects Blackgrass (blackgrass [16]) | other results
FC(F)(F)c1cccc(C=Cc2nc3ccccc3o2)c1 [I-c-1] | 3 | 1 | 3 | 4 | 1 | 5 | 5 | 1 | 1 | 3 | 5 | 2 | 1 | 2 | 2 | 0 | 1 | 1 | 1 | 5 | Effects Green foxtail (green foxtail [17]): 3; Effects Large crabgrass (Large crabgrass [18]): 5; Effects Green foxtail (green foxtail [19]): 5; Effects Livid amaranth (livid amaranth [20]): 5; Effects Annual bluegrass (annual bluegrass [21]): 5; Effects Large crabgrass (Large crabgrass [22]): 3; Effects Common lambsquarters (common lambsquarters [23]): 5; Effects Common lambsquarters (common lambsquarters [24]): 3; Effects Barnyardgrass (barnyard grass [25]): 3
CCC(=Cc1cccc(C(F)(F)F)c1)c1nc2cc(C#N)ccc2o1 [I-c-81] | 5 | 4 | 4 | 5 | 5 | 5 | 5 | 3 | 2 | 4 | 5 | 3 | 3 | 4 | 3 | 3 | 2 | 2 | 3 | 5 | Effects Sugar beat (sugar beat [26]): 5; Effects Soybean (soybean [27]): 3; Effects Velvetleaf (velvetleaf [28]): 5; Effects Green foxtail (green foxtail [17]): 4; Effects Large crabgrass (Large crabgrass [18]): 5; Effects Green foxtail (green foxtail [19]): 5; Effects Livid amaranth (livid amaranth [20]): 5; Effects Annual bluegrass (annual bluegrass [21]): 5; Effects Large crabgrass (Large crabgrass [22]): 4; Effects Common lambsquarters (common lambsquarters [23]): 5; Effects Common lambsquarters (common lambsquarters [24]): 5; Effects Barnyardgrass (barnyard grass [25]): 5
CCC(=Cc1cccc(C(F)(F)F)c1)c1nc2cc(C(F)(F)F)ccc2o1 [I-c-86] | 4 | 4 | 3 | 5 | 5 | 5 | 5 | 3 | 2 | 4 | 5 | 3 | 2 | 4 | 3 | 0 | 1 | 1 | 2 | 5 | Effects Sugar beat (sugar beat [26]): 5; Effects Soybean (soybean [27]): 0; Effects Velvetleaf (velvetleaf [28]): 5; Effects Green foxtail (green foxtail [17]): 4; Effects Large crabgrass (Large crabgrass [18]): 5; Effects Green foxtail (green foxtail [19]): 5; Effects Livid amaranth (livid amaranth [20]): 5; Effects Annual bluegrass (annual bluegrass [21]): 5; Effects Large crabgrass (Large crabgrass [22]): 4; Effects Common lambsquarters (common lambsquarters [23]): 5; Effects Common lambsquarters (common lambsquarters [24]): 5; Effects Barnyardgrass (barnyard grass [25]): 5
CCC(=Cc1cccc(C(F)(F)F)c1)c1nc2cc(F)c(F)cc2o1 [I-c-111] | 4 | 4 | 1 | 5 | 4 | 5 | 5 | 4 | 3 | 4 | 5 | 3 | 4 | 4 | 3 | 5 | 2 | 3 | 3 | 5 | Effects Sugar beat (sugar beat [26]): 5; Effects Soybean (soybean [27]): 5; Effects Velvetleaf (velvetleaf [28]): 5; Effects Green foxtail (green foxtail [17]): 4; Effects Large crabgrass (Large crabgrass [18]): 5; Effects Green foxtail (green foxtail [19]): 5; Effects Livid amaranth (livid amaranth [20]): 5; Effects Annual bluegrass (annual bluegrass [21]): 5; Effects Large crabgrass (Large crabgrass [22]): 4; Effects Common lambsquarters (common lambsquarters [23]): 5; Effects Common lambsquarters (common lambsquarters [24]): 5; Effects Barnyardgrass (barnyard grass [25]): 5
